One data set relates to mouse cochlear explants. The following applies: cited from earlier work.
Data set [1] concerns HEI-OC1 cells. Nature of the data set: Caspase-3/7 Glo assay, cisplatin-induced apoptosis in HEI-OC1 cell line.
The subject of data set [2] is outer hair cells (OHCs) in mouse cochlear explants. The data set is described as follows: Protection against cisplatin-induced hair cell loss in neonatal (P3) mouse cochlear explants. It is filed as cell-based. The following applies: for IC50: read-out: Mouse Explant IC50; for OHCs protected against cisplatin (For x%): level of protection to which the stated explant IC50 refers; for OHC survival: 24 hr cisplatin co-treatment; for Explant Cisplatin LD50: LD50, unnumbered table.

Data set [3] deals with hair cells in zebrafish lateral line neuromasts. Nature of the data set: Protection against cisplatin-induced hair cell loss in zebrafish lateral lines in vivo. The following applies: 5-dpf larvae, 5 μM cisplatin.
The test system is the same in data set [4]. The following applies: for Zebrafish LD50: 5-dpf larvae. As to the method:
The experiments were performed with 5-dpf larval zebrafish of the *AB wild-type strain. Dose-response studies were performed to find the cisplatin concentration at which most of the hair cells in each neuromast were killed in the absence of a protective compound and at the same DMSO concentration (<0.2%).
Experiments were performed in 24-well plates with 5 fish per well in volumes of 1-2 mL. Fish were incubated with 5 μM and stained with 0.005% DASPEI vital dye for 15 minutes. After two washes with egg water, fish were visualized in an epiflourescence microscope. […] Results were plotted as percent survival of hair cells in the cisplatin-treated fish relative to the untreated fish (FIG. 4A-E).

The subject of data set [5] is HEI-OC1 cells.
Data set [6] has as its system hair cells in mouse cochlear explants.
Data set [7] concerns mouse medulloblastoma neurosphere lines and human neuroblastoma cell lines. The data set is described as follows: Interference with cisplatin's killing function in tumor cell lines (Cell Titer Glo). Type of data set: cell-based. The following applies: 48 hours, cisplatin 23 μM, compound 3×IC50. As to the method: FIG. 11 addresses interference with cisplatin's killing function in tumors. Four neurosphere lines derived from mouse medulloblastoma (MB) and two human neuroblastoma (NB) cell lines were tested. HEI-OC1 cell line was tested as controls.
Table 1 lists the top 18 compound hits in the screen in terms of high potency and low toxicity. The top ten compounds were further evaluated by a viability assay (Cell Titer Glo, Promega) in medulloblastoma neurosphere cell lines and neuroblastoma cell lines to test whether they inhibit the ability of cisplatin to kill the tumor cells. The majority had no antagonistic effect on cisplatin's antitumor activity (data not shown) and are therefore safe to use systemically together with cisplatin during chemotherapy to protect against cisplatin-induced hearing loss.

The conditions of data set [8]: cited from earlier work.
The next data set relates to CDK1, 2, 4, 6 and 9. The following applies: range over the kinases; cited from earlier work.
The mark [9] stands for this setting: Mus musculus, HEI-OC1, 22 h, read-out: HEI-OC1 IC50.
The mark [10] stands for this setting: Mus musculus, 24 h, P3 cochlear explants, 50 μM cisplatin, 24 hrs.
Where [11] appears, read: Cell Titer Glo, compound without cisplatin, 40 μM to 40 nM, 22 hrs.
Setting [12] is: Mus musculus, HEI-OC1, read-out: HEI-OC1 IC50.
Setting [13] is: P3 cochlear explants, 50 μM cisplatin, 24 hrs.
The mark [14] stands for this setting: read-out: HEI-OC1 IC50, Caspase-3/7 Glo, 50 μM cisplatin, 22 hrs.

Where two headings read alike, the source gives them in different places. Residues, ends and D or L forms follow the SMILES beside them. *: point of attachment. Cbz = O=C(OCc1ccccc1)*; CH2F = FC* A value given as a limit tells only on which side of the number the result lay.

In the case of `Cc1ccc(C(=O)Cn2c3c(sc2=N)CCCC3)cc1` [Pifithrin-α, reference compound], the “damage at protective doses” value with mouse cochlear explants (20-100 μM) is “damage the hair cell stereocillia”. Also, in the data set with mouse cochlear explants (mouse cochlear explants), the “concentrations conferring protection from cisplatin-induced cell death” value is 20 to 100 µM. Further, the “concentration for full reduction of caspase-3/7 activity” value with HEI-OC1 cells [1] (50 μM cisplatin) was found to be 34 µM. Further, the IC50 in the data set on HEI-OC1 cells [1] (read-out: IC50, reduction of caspase-3/7 activity (caspase-3 cleavage), reference compound, 50 μM cisplatin) came out at 17000 nM.

On to `COC(=O)C[C@H](NC(=O)[C@H](C)NC(=O)[C@@H](NC(=O)OCc1ccccc1)C(C)C)C(=O)CF` [zVAD-fmk] (Cbz-Val-Ala-Asp(OMe)-CH2F), for which, in the data set on mouse cochlear explants (read-out: IC50, inhibition of cisplatin-induced cell death in the mouse cochlea), the IC50 was 200 nM.

As for `O=C1C=C2C(=CCOC2O)O1` (stereo not drawn) [Compound 11, Patulin], the IC50 in [2] (Mus musculus, 24 h) was 3 to 9 µM; in the data set with HEI-OC1 cells [1] (setting [9]) it was 700 nM.

As for `CCOc1cc2ncc(C#N)c(Nc3ccc(F)c(Cl)c3)c2cc1NC(=O)/C=C/CN(C)C` [Compound 3, Pelitinib], the values for the IC50 (in data set [2] (setting [10]); in the data set with HEI-OC1 cells [1] (setting [9])) were ~6 µM and 600 nM, respectively. Also, the “OHCs protected against cisplatin (For x%)” value (“OHCs protected … (For x%)” below) in data set [2] was “(For 50%)”. In addition, the “Zebrafish IC50” value in [3] is “No”. The “Zebrafish LD50” value in [4] is <27 µM. Besides, the “HEI-OC1 LD50” value in the data set on HEI-OC1 cells [5] (mouse, 22 h) was >40 µM. In data set [6] (mouse, 24 h), the “Mouse Explant LD50” value was <13 µM.

On to `O=c1cc(CN2CCOCC2)occ1OCCCCCSc1ccnc2cc(C(F)(F)F)ccc12` [Compound 7, EHT1864], for which the IC50 in [2] (setting [10]) is ~10 µM; in the data set on HEI-OC1 cells [1] (setting [9]), 2000 nM. Further, the “OHCs protected … (For x%)” value in [2] is “(For 58%)”. The “Zebrafish IC50” value in [3] is “No”. Moreover, the “Zebrafish LD50” value in data set [4] was <1.0 µM. For the same molecule, in data set [7], the “interference with cisplatin anti-tumor activity” value is given as “no interference in all tumor cell lines (except one for Compound 7)”. The “HEI-OC1 LD50” value in the data set on HEI-OC1 cells [5] (mouse, 22 h) is >20 µM. In addition, the “Mouse Explant LD50” value in [6] (mouse, 24 h) was <20 µM.

With `O=C(Nc1n[nH]c2nc(-c3ccc(O)cc3)c(Br)cc12)C1CC1` [Compound 16], the “HEI-OC1 LD50” value in the data set with HEI-OC1 cells [5] (mouse, 22 h) was >40 µM. For the same molecule, the IC50 in the data set with HEI-OC1 cells [1] (setting [9]) amounted to 800 nM.

Take `CN[C@H](C#Cc1c(F)ccc2c1/C(=C/c1[nH]ccc1OC)C(=O)N2)CO` [Compound 15]: the “HEI-OC1 LD50” value in the data set on HEI-OC1 cells [5] (mouse, 22 h) is >10 µM. Moreover, the IC50 in the data set on HEI-OC1 cells [1] (setting [9]) stood at 100 nM.

For `Sc1nc2ccccc2s1` [Compound 10, 2-Mercapto-benzothiazole], the values for the IC50 (in data set [2] (setting [10]); in the data set with HEI-OC1 cells [1] (setting [9])) were > 49 µM and 7000 nM, respectively. Besides, the “HEI-OC1 LD50” value in the data set on HEI-OC1 cells [5] (setting [11]) was >10 µM.

On to `CN(C)CCOc1ccc(-c2cc(-c3ccc4c(c3)CC/C4=N\O)c(-c3ccncc3)o2)cc1` [Compound 14], for which the “HEI-OC1 LD50” value in the data set with HEI-OC1 cells [5] (mouse, 22 h) was >10 µM. The IC50 in the data set on HEI-OC1 cells [1] (setting [9]) was 1300 nM.

Take `CC(C)COC(=O)c1ccc2[nH]c(O)c(/C=N/c3ccc(S(N)(=O)=O)cc3)c2c1` [Compound 18]: in the data set on HEI-OC1 cells [5] (mouse, 22 h), the “HEI-OC1 LD50” value was >40 µM. The IC50 in the data set with HEI-OC1 cells [1] (setting [9]) was determined as 3400 nM.

`OC[C@H]1OC(c2nc3ccccc3[nH]2)[C@H](O)[C@@H]1O` (stereo partly drawn) [Compound 13, D-Ribofuranosyl- benzimidazole]: the IC50 in data set [2] (setting [10]) was ~8 µM; in the data set with HEI-OC1 cells [1] (setting [9]), 4000 nM. Moreover, the “OHCs protected … (For x%)” value in [2] is “(For 76%)”. The “Zebrafish IC50” value in [3] is listed as “No”. For the same molecule, in data set [4], the “Zebrafish LD50” value was >75 µM. In addition, in the data set on HEI-OC1 cells [5] (mouse, 22 h), the “HEI-OC1 LD50” value was >40 µM.

In the case of `N.N.[Cl][Pt][Cl]` [cisplatin, reference compound], in [4] (5 μM, 20 hrs, no protective compound), the hair cells killed came to 91%. Moreover, the “death of outer hair cells (OHCs)” value in data set [6] (50 μM, 24 hrs) was ~40%.

Turning to `CCCCCC[C@H]1C(=O)OC(C)C(NC(=O)c2cccc(NC=O)c2O)C(=O)O[C@@H](C)C1OC(=O)CC(C)C` (stereo partly drawn) [Compound 5, Antimycin A], the IC50 was ~1.8 µM in data set [2] (setting [10]) and 40 nM in the data set on HEI-OC1 cells [1] (setting [9]). The “OHCs protected … (For x%)” value in [2] is recorded as “(For 31%)”. In addition, the “Zebrafish IC50” value in [3] was “No”. The “Zebrafish LD50” value in [4] is <0.6 µM. Moreover, the “HEI-OC1 LD50” value in the data set on HEI-OC1 cells [5] (setting [11]) was >10 µM. Moreover, in data set [6] (P3 cochlear explants), the “Mouse Explant LD50” value was <4 µM.

Consider `Cc1oncc1C(=O)Nc1ccc(C(F)(F)F)cc1` [Compound 1, Leflunomide], for which the OHC survival in data set [2] is listed as 100%. The “Zebrafish IC50” value in [3] is “No”. Moreover, the “Zebrafish LD50” value in [4] is >5.0 µM. The “HEI-OC1 LD50” value with HEI-OC1 cells [5] (mouse, 22 h) is >40 µM. The “Mouse Explant LD50” value in [6] (mouse, 24 h) was >50 µM. Moreover, the IC50 in the data set with HEI-OC1 cells [1] (setting [9]) was 3000 nM.

`Cc1ncc(-c2ccnc(Nc3ccc(S(C)(=O)=O)cc3)n2)n1C(C)C` [SJZuo-19, AZD5438]: the “Explant Cisplatin LD50” value in data set [2] was ~25 nM; in data set [6] (mouse, 24 h), < 1000 nM. Besides, in data set [8], the “oral bioavailability, F” value is 91%.

Turning to `O=C(NC1CCNCC1)c1n[nH]cc1NC(=O)c1c(Cl)cccc1Cl` [SJZuo-20, AT7519], the “Explant Cisplatin LD50” value in data set [2] is ~25 nM; in data set [6] (mouse, 24 h) it was < 1000 nM. Further, the IC50 with CDK1, 2, 4, 6 and 9 was […]; in the data set on HEI-OC1 cells [1] (setting [12]) it was 380 nM. Moreover, in data set [8], the “oral bioavailability, F” value is reported as < 1%.

For the molecule `O=C([O-])c1cc(/N=N/c2ccc(O)c(C(=O)[O-])c2)ccc1O.[Na+].[Na+]` [Compound 2, Olsalazine sodium], the IC50 was ~30 µM in data set [2] (setting [13]) and 6200 nM in the data set with HEI-OC1 cells [1] (setting [14]). Moreover, the “OHCs protected … (For x%)” value in [2] is “(For 50%)”. In addition, the “Zebrafish IC50” value in data set [3] is given as “No”. The “Zebrafish LD50” value in [4] is >30 µM. Further, in the data set with HEI-OC1 cells [5] (setting [11]), the “HEI-OC1 LD50” value was >40 µM. In addition, in data set [6] (P3 cochlear explants), the “Mouse Explant LD50” value was >30 µM.

Consider `COc1cccc(-c2c[nH]c3c(N/N=C/c4ccncc4)ncnc23)c1` [Compound 17], for which, in the data set with HEI-OC1 cells [5] (mouse, 22 h), the “HEI-OC1 LD50” value was >40 µM. Moreover, in the data set with HEI-OC1 cells [1] (setting [9]), the IC50 stood at 2100 nM.

Regarding `O=c1c2ccccc2[se]n1-c1ccccc1` [Ebselen, 2-phenyl-1,2-benzisoselenazol-3-one, reference compound], in the data set on HEI-OC1 cells [1] (dose response), the “potency in protection against cisplatin” value is given as “low potency”.

On to `CC[C@H](CO)Nc1nc(NCc2ccccc2O)c2ncn(C(C)C)c2n1` [Compound 9, Olomoucine II], for which the “protection against cisplatin-induced hair cell loss in cochlear explants” value in [2] (50 μM cisplatin, 24 hrs) is recorded as “protect against cisplatin-induced hair cell loss”. For the same molecule, the OHC survival in data set [2] is listed as 100%. Besides, the “Explant Cisplatin LD50” value is 3,000 nM in data set [2] and > 33000 nM in data set [6] (mouse, 24 h). Further, the “Zebrafish IC50” value in [3] was “No”. In data set [4], the “Zebrafish LD50” value was >50 µM. Also, the “HEI-OC1 LD50” value in the data set with HEI-OC1 cells [5] (mouse, 22 h) is >40 µM. Also, the “Mouse Explant LD50” value in data set [6] (mouse, 24 h) is >33 µM. The IC50 in the data set with HEI-OC1 cells [1] (setting [9]) and in the data set on HEI-OC1 cells [1] (setting [12]) was 800 nM each time.

Consider “Cyanocobalamin (vitamin B12) [Compound 6]”, for which the figures for the IC50 (in data set [2] (setting [13]); in the data set on HEI-OC1 cells [1] (setting [14])) were ~21 µM and 4200 nM, respectively. Besides, the “OHCs protected … (For x%)” value in data set [2] is given as “(For 53%)”. In addition, in the data set with HEI-OC1 cells [5] (setting [11]), the “HEI-OC1 LD50” value was >40 µM. Also, the “Mouse Explant LD50” value in [6] (P3 cochlear explants) was >21 µM.

Source of the values: patent US11446308B2, “Methods and compositions for the prevention and treatment of hearing loss” (St. Jude Children's Research Hospital, priority 2015, dated 2022).
